Test results taken from US3974187A, “Synthetic analogs having the activity of naturally occurring forms of coenzyme Q” (priority 1975, dated 1976).

Tests used:
[1] = tested on: succinoxidase system of beef heart mitochondria; assay: CoQ activity: restoring succinoxidase activity of pentane-extracted beef heart mitochondria (manometric); assay type: biochemical; parameters: key to CoQ10 Act. Index: activity index relative to CoQ10 standard; settings: for Activation at 400 nMoles %: 400 nmoles of analog, relative to the response to 400 nmoles CoQ10; for Maximum Activation: 400 nm of analog per flask, percent of the response to CoQ4; for CoQ10 Act. Index: calculated from relative effectiveness, activity in terms of that of CoQ10; for ability to elicit maximum activation of succinoxidase / effectiveness / utilization in the succinoxidase mitochondrial system: interpretation of Table II; for Estimated nMoles Required for 50% Activation: level required to reinstate approximately 50% of maximum succinoxidase activity, 0.65-0.85 mg PEBHM; for Relative Effectiveness: molar amounts of analog and CoQ4 required to restore the same level of succinoxidase to PEBHM, relative to CoQ4
Protocol: The CoQ activity of each analog was assessed by examining the ability of the analog to stimulate the succinoxidase activity of beef-heart mitochondria (BHM) from which the naturally occurring CoQ had been removed by pentane extraction. (Table I) Beef heart mitochondria were prepared by the method of Smith (Methods Enzymol., 10, 81 (1967). The pentane extraction was conducted as described by Szarkowska (Arch. Biochem. Biophys., 113, 519 (1966); PEBHM was frozen and used within 10 days of preparation, since pentane extraction decreases the stability of BHM. Succinoxidase activity was determined manometercally, using a Gilson differential respirometer (Iwamoto, Y., Hansen, I. L., Porter, T. H., and Folkers, K., Biochem. Biophys. Res. Comm., 58, 633 (1974), and is reported as […] of oxygen per minute per milligram of protein. A commercial soybean phospholipid preparation (Asolectin), dispersed by sonication (Fleischer, S. and Fleischer, B., Methods Enzymol., 10, 421 (1967), was used to provide phospholipid micelles, and test substances were added as solutions in ethanol. Within Table I are listed the CoQ activities of the analogs and selected reference compounds. The CoQ10 Activity Index is a measure of the effectiveness of the analogs, relative to the standard, in stimulating a submaximal response of succinoxidase activity. Specific activity of the succinoxidase system in response to stimulation by exogenous CoQ10 is given in footnote a of the Table. The quantity of analog to be added was chosen to provide a level of succinoxidase activity corresponding to the nearly linear portion of the activity: dose curve, in which succinoxidase activity stimulated is approximately proportional to the level of analog used. The second column lists the nanomolar quantity of analog required to provide a stimulation of about half of the maximum response. The relative response of the succinoxidase system to 400 nmol of each analog is listed in the third column of the Table. This level of analog is sufficient to insure significant excess over the stoichiometric amount, and maximum response to CoQ4 is obtained at one-tenth to one-twentieth of this dose level. The response to 400 nmol of CoQ10 is lower than is the response to other components listed. The very long side-chain of CoQ10, the natural coenzyme, may hinder the transport of exogenous CoQ10 to the active site.

complex III = complex III (Bos taurus, UniProt P00157+P13272); assay: Reduction of cytochrome c by reduced CoQ and analogs catalyzed by complex III; assay type: biochemical; settings: for nMoles Cytochrome c Reduced/min / Non-enzymatic Rate of Cytochrome c Reduction: 10 μM reduced CoQ or analog; for nMoles Cytochrome c Reduced/min: 2 μg complex III, 8 μM cytochrome c; for Non-enzymatic Rate of Cytochrome c Reduction: blank without complex III; for % Inhibition by Antimycin A: antimycin A 1 μg/ml
Protocol: Reduction of cytochrome c was measured at 550-540 nm. The reaction mixtur
contained in 1.0 ml: […] KP1, pH 7.5; 0.05 mM EDTA; 8 μM
cytochrome c1; 10 μM reduced CoQ or analog and 2 μg complex
III. When indicated, antimycin A was added to the assay medium at 1
μg/ml. An extinction coefficient of 19 mM^-^1 was used for […]

Chemical stability = assay type: physicochemical; settings: compared with CoQ1 and CoQ2
[2] = tested on: oxidative phosphorylation at site I (ETPH particles); assay: Assay of CoQ and analogs for oxidative phosphorylation at site I with ETPH particles; assay type: biochemical; parameters: Δ NADH / Δ G6P: unit not given here; settings: for P/NADH Ratio / Δ G6P / Δ NADH / μmoles NADH /min/mg / μmoles NADH min/mg +Rotenone / % Inhibition by Rotenone: CoQ or analog 0.12 nM (footnote 0.12 mM); for μmoles NADH /min/mg: 200 μg ETPH particles, no rotenone; for μmoles NADH min/mg +Rotenone / % Inhibition by Rotenone: rotenone 2 μM
Protocol: Assays were performed with 200 μg of ETPH particles as described by
Schatz and Racker (J. Biol. Chem., 241, 1429 (1966)). The concentration o
the CoQ compounds was 0.12 mM. Rotenone was added at 2 μM

[3] = literature / general knowledge; cited from earlier work

| SMILES | Activation at 400 nMoles % [1] [%] | Maximum Activation [1] [%] | CoQ10 Act. Index [1] | Estimated nMoles Required for 50% Activation [1] [nmol] | Relative Effectiveness [1] [%] | further results |
| --- | --- | --- | --- | --- | --- | --- |
| COC1=C(OC)C(=O)C(C/C=C(\C)CC/C=C(\C)CC/C=C(\C)CCC=C(C)C)=C(C)C1=O [CoQ4, reference compound] | 128 | 100 | 20.8 | 2.0 | 100 | amount giving full restoration of activity of succinoxidase in PEBHM [1]: more than 20 nmoles; maximum activity of succinoxidase in PEBHM ([1]; full restoration, more than 20 nmoles of CoQ4): 0.700 μatm O2 /mg protein min; ability to elicit maximum activation of succinoxidase [1]: can elicit maximum activation; effectiveness / utilization in the succinoxidase mitochondrial system [1]: effectively utilized |
| CCCCCCCCCCC1=C(C)C(=O)C(OC)=C(OC)C1=O [Decyl, 2,3-Dimethoxy-5-methyl-6-decyl-1,4-benzoquinone] | 123 | 96 | 11.7 | 3.6 | 56 | nMoles Cytochrome c Reduced/min (complex III): 29.0 nmol/min; Non-enzymatic Rate of Cytochrome c Reduction (complex III): 0.2 nmol/min; response of complex III system to the reduced analog as substrate (complex III; after reduction and extraction): excellent substrates; % Inhibition by Antimycin A (complex III): 98%; chemical stability (Chemical stability; listed as 6-n-decyl): superior to CoQ1 and CoQ2 in chemical stability; chemical stability (Chemical stability; listed as DB): apparent greater stability; effectiveness / utilization in the succinoxidase mitochondrial system [1]: effective; P/NADH Ratio [2]: 0.46; Δ G6P [2]: 0.039; Δ NADH [2]: 0.085; μmoles NADH /min/mg [2]: 0.52 μmoles NADH /min/mg; μmoles NADH min/mg +Rotenone [2]: 0 μmoles NADH min/mg; biochemical effectiveness in the site I assay system ([2]; compared with CoQ1): as biochemically effective as CoQ1; % Inhibition by Rotenone [2]: 100% |
| COC1=C(OC)C(=O)C(CC=C(C)C)=C(C)C1=O [Q1, reference compound] |  |  |  |  |  | nMoles Cytochrome c Reduced/min (complex III): 12.4 nmol/min; Non-enzymatic Rate of Cytochrome c Reduction (complex III): 0.6 nmol/min; % Inhibition by Antimycin A (complex III): 100%; chemical stability of isoprenoid quinones [3]: relative chemical instability; P/NADH Ratio [2]: 0.522; Δ G6P [2]: 0.046; Δ NADH [2]: 0.088; μmoles NADH /min/mg [2]: 0.45 μmoles NADH /min/mg; μmoles NADH min/mg +Rotenone [2]: 0.03 μmoles NADH min/mg; % Inhibition by Rotenone [2]: 93% |
| CCCCCC=CCC=CCCCCCCCCCC1=C(C)C(=O)C(OC)=C(OC)C1=O [10', 13'-Nonadecadienyl] | 123 | 96 | 7.3 | 5.7 | 35 |  |
| CC(C)=CCC/C(C)=C/CC/C(C)=C/CC1=CC(=O)C(C)=C(C)C1=O [plastoquinone-3] |  |  |  |  |  | chemical stability of isoprenoid quinones [3]: extremely unstable |
| CCC=CCC=CCC=CCCCCCCCC1=C(C)C(=O)C(OC)=C(OC)C1=O [8', 11', 14'-Heptadecatrienyl, 2,3 -Dimethoxy-5-methyl-6-(8',11',14'-heptadecatrienyl)-1,4-benzoquinone] | 123 | 96 | 12.5 | 3.3 | 60 |  |
| COC1=C(OC)C(=O)C(C/C=C(\C)CC/C=C(\C)CC/C=C(\C)CC/C=C(\C)CC/C=C(\C)CC/C=C(\C)CCC=C(C)C)=C(C)C1=O [CoQ7, reference compound] | 115 | 90 | 1.7 | 24.4 | 8.2 |  |
| CCCCCCC=CCCCCCCCC1=C(C)C(=O)C(OC)=C(OC)C1=O [8'-Pentadecenyl] | 119 | 93 | 11.1 | 3.4 | 58 |  |
| COC1=C(OC)C(=O)C(C/C=C(\C)CCC=C(C)C)=C(C)C1=O [Q2, reference compound] |  |  |  |  |  | nMoles Cytochrome c Reduced/min (complex III): 27.4 nmol/min; Non-enzymatic Rate of Cytochrome c Reduction (complex III): 0.2 nmol/min; % Inhibition by Antimycin A (complex III): 98%; chemical stability of isoprenoid quinones [3]: relative chemical instability; P/NADH Ratio [2]: 0.57; Δ G6P [2]: 0.045; Δ NADH [2]: 0.079; μmoles NADH /min/mg [2]: 0.25 μmoles NADH /min/mg; μmoles NADH min/mg +Rotenone [2]: 0.02 μmoles NADH min/mg; % Inhibition by Rotenone [2]: 92% |
| CCCCCCCCC=CCCCCCCCC1=C(C)C(=O)C(OC)=C(OC)C1=O [8'-Heptadecenyl, 2,3-Dimethoxy-5-methyl-6-(8'-heptadecenyl)-1,4-benzoquinone] | 121 | 94 | 5.8 | 7.1 | 28 |  |
| CCCCCCCCC=CCCCCCCCCCC1=C(C)C(=O)C(OC)=C(OC)C1=O [10'-Nonadecenyl, 2,3-Dimethoxy-5-methyl-6-(10'-nonadecenyl)-1,4-benzoquinone] | 123 | 96 | 5.8 | 7.1 | 28 |  |
| CCCCCCCCCCCCCCCCCCCCC1=C(C)C(=O)C(OC)=C(OC)C1=O [Eicosyl, 2,3-Dimethoxy-5-methyl-6-n-eicosyl-1,4-benzoquinone] | 79 | 62 | 0.9 | 44.4 | 4.5 | ability to elicit maximum activation of succinoxidase [1]: cannot stimulate maximum activation |
| CCCCCC=CCC=CCC=CCC=CCCCC1=C(C)C(=O)C(OC)=C(OC)C1=O [4', 7', 10', 13'-Nonadecatetraenyl, 2,3-Dimethoxy-5-methyl-6-(4',7',10',13'-nonadecatetraenyl)-1,4-benzoquinone] | 118 | 92 | 7.7 | 5.4 | 37 |  |
| CCC=CCC=CCC=CCCCCCCCCCC1=C(C)C(=O)C(OC)=C(OC)C1=O [10', 13', 16'-Nonadecatrienyl, 2,3-Dimethoxy-5-methyl-6-(10',13' ,16'-nonadecatrienyl)-1,4-benzoquinone] | 128 | 100 | 10.2 | 4.1 | 49 |  |
| CCCCCC=CCC=CCCCCCCCC1=C(C)C(=O)C(OC)=C(OC)C1=O [8', 11'-Heptadecadienyl, 2,3-Dimethoxy-5-methyl-6-(8',11'-heptadecadienyl)-1,4-benzoquinone] | 122 | 95 | 9.0 | 4.7 | 43 |  |
